{
  "source": "patent US11351142B2",
  "about": "“Composition and method for treating neuronal ceroid lipofuscinosis” (Rush University Medical Center, priority 2012, dated 2022)",
  "key": {"[1]": {"system": "tripeptidyl peptidase 1 (TPP1)", "assay": "Double-labeling for TPP1 and β-tubulin (FIG. 11)", "format": "cell-based", "settings": "25 μM gemfibrozil and 10 μM fenofibrate, 24 hours", "text": "(§1) DAPI was used to visualize nuclei. Results represent 3 independent experiments."}, "[2]": {"system": "lysosome-associated membrane protein 2 (LAMP2)", "assay": "Double-labeling for LAMP2 and β-tubulin in human neurons", "format": "cell-based", "settings": "25 μM gemfibrozil and 10 μM fenofibrate, 24 hours", "text": "as §1"}, "CLN2 (−/−) mice": {"system": "CLN2 (−/−) mice", "assay": "Motor activity monitoring of CLN2 (−/−) mice", "format": "in vivo, mouse", "settings": "after 2 weeks and 6 weeks of gemfibrozil treatment", "description": "Each animal was allowed 5 mins of adaptation time followed by monitoring for 5 min. *p-value<0.05. n=15 (untreated), n=20 (treated)"}, "TPP1 [3]": {"system": "TPP1", "assay": "Western blot for TPP1 in mouse primary neurons", "format": "cell-based", "settings": "neurons from cortex, hippocampus, striatum; 25 μM gemfibrozil, 24 hrs", "description": "Fetal (E18-E16) mouse neurons were prepared as previously described (23) with modifications. Whole brains were removed and cortical, hippocampal, striatal and cerebellar fractions were dissected in serum free Neurobasal media. The cells were washed by centrifugation three times at 1200 rpm for 10 min, the pellet dissociated and the cells plated at 10% confluence in 8-well chamber slides pre-treated for >2 hr with Poly-D-Lysine (Sigma, St. Louis, Mo.). After 4 min, the non-adherent cell suspension was aspirated and […] complete Neurobasal media (Invitrogen) supplemented with 2% B27 was added to each well. The cells were incubated for 4 days prior to experimentation. […] The cells were stimulated with gemfibrozil in Neurobasal media supplemented with 2% B27 minus antioxidants (Invitrogen) for 24 hr prior to methanol fixation and immunostaining.\nWestern blotting was conducted as described earlier (27,28) with modifications. Briefly, cells were scraped in double-distilled H20 and sodium dodecyl sulfate (SDS), electrophoresed on NuPAGE® Novex® 4-12% Bis-Tris gels (Invitrogen) and proteins transferred onto a nitrocellulose membrane (Bio-Rad) using the Thermo-Pierce Fast Semi-Dry Blotter. […]\nProtein blots were analyzed using ImageJ (NIH, Bethesda, Md.) and bands were normalized to their respective β-actin loading controls. […]"}, "TPP1 [4]": {"system": "TPP1", "assay": "Immunofluorescence for TPP1 in mouse primary astrocytes", "format": "cell-based", "description": "Astroglia were isolated from mixed glial cultures as described (17,18) according to the procedure of Giulian and Baker (19). Briefly, on day 9, the mixed glial cultures were washed three times with Dulbecco's modified Eagle's medium/F-12 and subjected to shaking at 240 rpm for 2 h at 37° C. on a rotary shaker to remove microglia. After 2 days, the shaking was repeated for 24 h for the removal of oligodendroglia and to ensure the complete removal of all nonastroglial cells. The attached cells were seeded onto new plates for further studies. Immunocytochemistry was performed as described earlier (25). Briefly, 8 well chamber slides containing mouse primary astrocytes, mouse neurons, human primary astrocytes or SH-SY5Y cells were cultured to 70-80% confluence were fixed with chilled Methanol (Fisher Scientific, Waltham, Mass.) overnight, followed by two brief rinses with filtered PBS. Samples were blocked with 2% BSA (Fisher Scientific) in PBS containing Tween 20 (Sigma) and Triton X-100 (Sigma) for 30 min and incubated at room temperature under shaking conditions for 2 hr in PBS containing the following anti-mouse primary antibodies: […] Santa Cruz Biotech, Santa Cruz, Calif.), GFAP, (1:100; Santa Cruz), and 3-tubulin (1:5000; Millipore). […] The samples were run in an EtOH and Xylene (Fisher) gradient, mounted and observed under Olympus BX41 fluorescence microscope."}, "lysosomal genes": {"system": "lysosomal genes", "assay": "RT-PCR for lysosomal genes in human astrocytes", "format": "cell-based", "settings": "25 μM gemfibrozil, serum free", "method": "(FIG. 13A) Quantitative real-time PCR for lysosomal genes in mouse astrocytes treated with 25 μM gemfibrozil for different time points under serum free conditions. […] (FIG. 13B) RT-PCR for lysosomal genes in human astrocytes treated under same condition. […] Results represent 3 independent experiments."}},
  "data": [
    {"smiles": "Cc1ccc(C)c(OCCCC(C)(C)C(=O)O)c1", "note": "[gemfibrozil]", "values": [
      {"measurement": "lysosomal marker protein TPP1 (double-labeling)", "setting": "[1]", "result": "upregulation"},
      {"measurement": "LAMP2 (double-labeling)", "setting": "[2]", "result": "upregulation"},
      {"measurement": "motor activity parameters", "setting": "CLN2 (−/−) mice", "result": "delays the loss of motor activity"},
      {"measurement": "increase in TPP1 protein (Western blot, densitometric quantification)", "setting": "TPP1 [3]", "result": "2-3 fold"},
      {"measurement": "TPP1 (immunofluorescence)", "setting": "TPP1 [4]; PPARα−/− astrocytes compared to WT and PPARβ−/− cells, 25 μM gemfibrozil and 10 μM fenofibrate, 24 hrs", "result": "little or no increase"},
      {"measurement": "TPP1 protein (immunofluorescence)", "setting": "TPP1 [4]; mouse primary astrocytes, different concentrations", "result": "dose dependant increase"},
      {"measurement": "lysosomal genes mRNA (RT-PCR)", "setting": "lysosomal genes", "result": "upregulation"}
    ]}
  ]
}
